Literature values in publication PMC8025584, “Identification of multipotent drugs for COVID-19 therapeutics with the evaluation of their SARS-CoV2 inhibitory activity” (Computational and Structural Biotechnology Journal, 2021).
Where a name gives a salt, the structure may show the parent alone. Read-outs that look alike come from different tables or passages of the source.

Tested on: differentially expressed human proteins in COVID-19
Details: cited from earlier work
[1] = gene HCK, drug-gene interaction listed in DGIdb export, ref DGIdb
[2] = gene TNF, drug-gene interaction listed in DGIdb export, ref DGIdb

CC(C)[C@@H](NC(=O)NCC(C)(C)O)C(=O)N1CC[C@](O)(c2ccc(Cl)cc2)C(C)(C)C1 [BMS-817399]
interaction_types (gene CCR1, drug-gene interaction listed in DGIdb export, ref DGIdb): antagonist

C[C@@H]1O[C@@H](O[C@@H]2[C@@H](NC(=O)c3cc(=O)[nH]c(=O)[nH]3)C[C@@H](C(=O)NCCNC(=O)COCCOCC(=O)Nc3cc(S(=O)(=O)O)cc4cc(S(=O)(=O)O)cc(S(=O)(=O)O)c34)C[C@H]2O[C@@H]2O[C@H](CO)[C@H](O)[C@H](O[C@@H](CC3CCCCC3)C(=O)O)[C@H]2OC(=O)c2ccccc2)[C@@H](O)[C@H](O)[C@@H]1O [[…]]
interaction_types (gene SELL, ref DGIdb): antagonist

C[C@]1(C(=O)N(CCCC(=O)O)Cc2cccc(Cl)c2)CCN1C(=O)c1csc2ccccc12 [GLPG-0974]
interaction_types (gene FFAR2, ref DGIdb): antagonist

NADROPARIN
interaction_types (gene FOS, ref DGIdb): inhibitor

CCC1(c2ccc(N)cc2)CCC(=O)NC1=O (centres unmarked) [AMINOGLUTETHIMIDE, reference compound]
interaction_types (gene CYP19A1, ref DGIdb): inhibitor

CC(=O)Nc1nnc(S(N)(=O)=O)s1 [ACETAZOLAMIDE]
interaction_types (gene CA1, ref DGIdb): inhibitor

NS(=O)(=O)Cc1noc2ccccc12 [ZONISAMIDE]
interaction_types (gene CA1, ref DGIdb): inhibitor

Cc1nc(Nc2ncc(C(=O)Nc3c(C)cccc3Cl)s2)cc(N2CCN(CCO)CC2)n1 [DASATINIB]
interaction_types (gene FGR, ref DGIdb): inhibitor
interaction_types [1]: inhibitor

CC(O)(P(=O)(O)O)P(=O)(O)O [ETIDRONIC ACID]
interaction_types (gene SLC25A4, ref DGIdb): inhibitor

CC[C@]12C=CCN3CC[C@@]4(c5cc([C@@]6(C(=O)OC)C[C@@H]7C[C@@H](C(C)(F)F)CN(Cc8c6[nH]c6ccccc86)C7)c(OC)cc5N(C)[C@H]4[C@@](O)(C(=O)OC)[C@@H]1OC(C)=O)[C@@H]32 [VINFLUNINE]
interaction_types (gene TUBA4A, ref DGIdb): inhibitor

POLAPREZINC
interaction_types [2]: inhibitor

CC(C)(Oc1ccc(CCNC(=O)c2ccc(Cl)cc2)cc1)C(=O)O [BEZAFIBRATE]
interaction_types (gene RXRB, ref DGIdb): agonist

NS(=O)(=O)c1cc(C2(O)NC(=O)c3ccccc32)ccc1Cl (centres unmarked) [CHLORTHALIDONE, reference compound]
interaction_types (gene CA1, ref DGIdb): inhibitor

C/C(=C\c1ccc(OCCN2CCOCC2)cc1)c1ccc2c(c1)C(C)(C)CCC2(C)C [MOFAROTENE]
interaction_types (gene RXRB, ref DGIdb): modulator

CC(C)CCC[C@@H](C)[C@H]1CC[C@H]2[C@@H]3CC=C4C[C@@H](O)CC[C@]4(C)[C@H]3CC[C@]12C [CHOLESTEROL]
interaction_types (gene CLEC4E, ref DGIdb): ligand

CCC[C@H](Nc1nc(-c2ccc(NC(=O)NCC)c(OC)c2)ncc1C)c1cccnc1 [LEXIBULIN]
interaction_types (gene TUBA4A, ref DGIdb): inhibitor

CC(C)(C#N)c1cc(Cn2cncn2)cc(C(C)(C)C#N)c1 [ANASTROZOLE]
interaction_types (gene CYP19A1, ref DGIdb): inhibitor

O=C1C[C@@H](c2ccc(O)cc2)Oc2cc(O)cc(O)c21 [NARINGENIN]
interaction_types (gene CYP19A1, ref DGIdb): inhibitor

INTERLEUKIN 15, RECOMBINANT NON-GLYCOSYLATED
interaction_types (gene IL2RG, ref DGIdb): agonist

CC(C)COCC(CN(Cc1ccccc1)c1ccccc1)N1CCCC1 (centres unmarked) [BEPRIDIL HYDROCHLORIDE]
interaction_types (gene CACNA1A, drug-gene interaction listed in DGIdb export, ref DGIdb): blocker

CNC[C@H](O)c1ccc(O)c(O)c1 [EPINEPHRINE]
interaction_types: agonist¦antagonist

CCOC(=O)c1ccc(C#Cc2ccc3c(c2)C(C)(C)CCS3)nc1 [TAZAROTENE, reference compound]
interaction_types (gene RXRB, ref DGIdb): agonist

CC(C)(C)c1[nH]cnc1/C=c1\[nH]c(=O)/c(=C/c2ccccc2)[nH]c1=O [PLINABULIN]
interaction_types (gene TUBA4A, ref DGIdb): inhibitor

O=C(O)Cc1cccc(-c2cc(CCCCCCc3ccc(O[C@H]4O[C@H](CO)[C@@H](O)[C@H](O)[C@@H]4O)c(-c4cccc(CC(=O)O)c4)c3)ccc2O[C@H]2O[C@H](CO)[C@@H](O)[C@H](O)[C@@H]2O)c1 [BIMOSIAMOSE]
interaction_types (gene SELL, ref DGIdb): inhibitor

CC1(C)O[C@@H]2[C@@H](CO[C@@]3(COS(N)(=O)=O)OC(C)(C)O[C@@H]23)O1 [TOPIRAMATE]
interaction_types (gene CA1, ref DGIdb): inhibitor

Nc1ncnc2c1ncn2[C@@H]1O[C@H](COP(=O)(O)OP(=O)(O)OP(=O)(O)O)[C@@H](O)[C@H]1O [ADENOSINE TRIPHOSPHATE]
interaction_types (gene P2RY13, ref DGIdb): agonist

COc1ccccc1OCC(O)COC(N)=O (centres unmarked) [METHOCARBAMOL]
interaction_types (gene CA1, ref DGIdb): inhibitor

C=CC(=O)N1CCC([C@@H]2CCNc3c(C(N)=O)c(-c4ccc(Oc5ccccc5)cc4)nn32)CC1 [ZANUBRUTINIB]
interaction_types (gene FGR, ref DGIdb): inhibitor

COc1cc(Nc2ncc(F)c(Nc3ccc4c(n3)N(COP(=O)(O)O)C(=O)C(C)(C)O4)n2)cc(OC)c1OC [FOSTAMATINIB, reference compound]
interaction_types (gene EIF2AK2, ref DGIdb): inhibitor
interaction_types (gene FGR, ref DGIdb): inhibitor
interaction_types (gene GAK, drug-gene interaction listed in DGIdb export, ref DGIdb): inhibitor
interaction_types [1]: inhibitor
interaction_types (gene PTK2B, ref DGIdb): inhibitor
interaction_types (gene TAOK3, ref DGIdb): inhibitor

ALDESLEUKIN
interaction_types: agonist

CC[C@]1(O)C[C@H]2CN(CCc3c([nH]c4ccccc34)[C@@](C(=O)OC)(c3cc4c(cc3OC)N(C=O)[C@H]3[C@@](O)(C(=O)OC)[C@H](OC(C)=O)[C@]5(CC)C=CCN6CC[C@]43[C@@H]65)C2)C1 [VINCRISTINE SULFATE]
interaction_types (gene TUBA4A, ref DGIdb): inhibitor

Nc1cc(-c2ccncc2)c[nH]c1=O [INAMRINONE]
interaction_types [2]: inhibitor

CCCCc1oc2ccc(NS(C)(=O)=O)cc2c1C(=O)c1ccc(OCCCN(CCCC)CCCC)cc1 [DRONEDARONE HYDROCHLORIDE]
interaction_types (gene KCNJ2, ref DGIdb): blocker

CC(/C=C/[C@@H]1C[C@]1(C)c1ccc2c(c1)C(C)(C)CCC2(C)C)=C\C(=O)O [IRX-4204]
interaction_types (gene RXRB, ref DGIdb): agonist

Cc1ccc2c(=O)c3cccc(CC(=O)O)c3oc2c1C [VADIMEZAN]
interaction_types [2]: inducer

COc1cc2nc(N3CCN(C(=O)C4COc5ccccc5O4)CC3)nc(N)c2cc1OC (centres unmarked) [DOXAZOSIN]
interaction_types (gene KCNH7, ref DGIdb): inhibitor

CN(CCO)CC(O)Cn1cnc2c1c(=O)n(C)c(=O)n2C (centres unmarked) [XANTHINOL]
interaction_types (gene RPL3, drug-gene interaction listed in DGIdb export, ref DGIdb): binder

COc1ccccc1OCCNCC(O)COc1cccc2[nH]c3ccccc3c12 (centres unmarked) [CARVEDILOL, reference compound]
interaction_types (gene KCNJ2, ref DGIdb): inhibitor

NS(=O)(=O)c1cc(Cl)c(Cl)c(S(N)(=O)=O)c1 [DICHLORPHENAMIDE]
interaction_types (gene CA1, ref DGIdb): inhibitor

NS(=O)(=O)c1nnc(NS(=O)(=O)c2ccccc2)s1 [BENZOLAMIDE]
interaction_types (gene CA1, ref DGIdb): inhibitor

NC(=O)[C@@H](CCC(F)(F)F)N(Cc1ccc(-c2ncon2)cc1F)S(=O)(=O)c1ccc(Cl)cc1
interaction_types (gene PSENEN, ref DGIdb): inhibitor

C/C(=C\c1csc(C)n1)[C@@H]1C[C@@H]2O[C@]2(C)CCC[C@H](C)[C@H](O)[C@@H](C)C(=O)C(C)(C)[C@@H](O)CC(=O)N1 [IXABEPILONE]
interaction_types (gene TUBA4A, ref DGIdb): inhibitor

LIPEGFILGRASTIM
interaction_types (gene CSF3R, ref DGIdb): agonist

CCc1c2c(nc3ccc(OC(=O)N4CCC(N5CCCCC5)CC4)cc13)-c1cc3c(c(=O)n1C2)COC(=O)[C@]3(O)CC [IRINOTECAN, reference compound]
interaction_types (gene ISG15, ref DGIdb): inhibitor

CN1C(CCl)Nc2cc(Cl)c(S(N)(=O)=O)cc2S1(=O)=O (centres unmarked) [METHYCLOTHIAZIDE]
interaction_types (gene CA1, ref DGIdb): inhibitor

CCOc1ccc(-c2ccc(Cn3c(CC(C)(C)C(=O)O)c(SC(C)(C)C)c4cc(OCc5ccc(C)cn5)ccc43)cc2)cn1 [FIBOFLAPON]
interaction_types (gene ALOX5AP, ref DGIdb): inhibitor

NS(=O)(=O)c1cc2c(cc1C(F)(F)F)NCNS2(=O)=O [HYDROFLUMETHIAZIDE]
interaction_types (gene CA1, ref DGIdb): inhibitor

CCCCCc1cccc(CC(=O)O)c1 [SETOGEPRAM]
interaction_types (gene GPR84, ref DGIdb): antagonist

CC1=NS(=O)(=O)c2cc(Cl)ccc2N1 [DIAZOXIDE]
interaction_types (gene CA1, ref DGIdb): inhibitor

CC(C)c1cc(CNc2nc(Nc3cc(C4CC4)[nH]n3)cc(N3CCN(C)CC3)n2)on1 [XL-228]
interaction_types (gene FGR, ref DGIdb): inhibitor
interaction_types [1]: inhibitor

Cc1ccc(C(=O)Nc2ccc(S(=O)(=O)O)c3cc(S(=O)(=O)O)cc(S(=O)(=O)O)c23)cc1NC(=O)c1cccc(NC(=O)Nc2cccc(C(=O)Nc3cc(C(=O)Nc4ccc(S(=O)(=O)O)c5cc(S(=O)(=O)O)cc(S(=O)(=O)O)c45)ccc3C)c2)c1 [SURAMIN]
interaction_types (gene P2RY13, ref DGIdb): antagonist

C[C@]12C=CC(=O)C=C1CC[C@@H]1[C@@H]2CC[C@]2(C)OC(=O)CC[C@@H]12 [TESTOLACTONE]
interaction_types (gene CYP19A1, ref DGIdb): inhibitor

Nc1ncnc2c1ncn2[C@@H]1O[C@H](COP(=O)(O)OP(=O)(O)O)[C@@H](O)[C@H]1O [ADENOSINE DIPHOSPHATE]
interaction_types (gene P2RY13, ref DGIdb): agonist

CC1=C(/C=C/C(C)=C/C=C/C(C)=C/C(=O)O)C(C)(C)CCC1 [TRETINOIN, reference compound]
interaction_types (gene RXRB, ref DGIdb): agonist

COc1cc(/C=N/NC(=O)c2ccc3c(c2)OCO3)ccc1OCc1ccccc1 [chembl:CHEMBL1290251]
interaction_types (gene FPR1, ref DGIdb): agonist

COc1cc([C@H]2C(C#N)=C(N)Oc3c2ccc(N)c3N)cc(Br)c1OC [CROLIBULIN]
interaction_types (gene TUBA4A, ref DGIdb): inhibitor

Nc1nc2nc[nH]c2c(=O)[nH]1 [GUANINE]
interaction_types (gene GCH1, ref DGIdb): inhibitor

CCCCCCCN(CC)CCCC(O)c1ccc(NS(C)(=O)=O)cc1 (centres unmarked) [IBUTILIDE, reference compound]
interaction_types (gene KCNH7, ref DGIdb): inhibitor

CC(C)C[C@H](CN)CC(=O)O [PREGABALIN, reference compound]
interaction_types: modulator¦inhibitor

CCN1CCCC1CNC(=O)c1cc(S(N)(=O)=O)ccc1OC (centres unmarked) [SULPIRIDE]
interaction_types (gene CA1, ref DGIdb): inhibitor

N[C@@H](Cc1c[nH]cn1)C(=O)O [HISTIDINE]
interaction_types (gene CA1, ref DGIdb): activator
